This is an account of results in article PMC7238120, “Strong and Selective Inhibitory Effects of the Biflavonoid Selamariscina A against CYP2C8 and CYP2C9 Enzyme Activities in Human Liver Microsomes” (Pharmaceutics, 2020).

What all share (format): in vitro ADME
One data set deals with T1, CYP2C8 (Homo sapiens, UniProt P10632).
T1 sequence (P10632 1-490): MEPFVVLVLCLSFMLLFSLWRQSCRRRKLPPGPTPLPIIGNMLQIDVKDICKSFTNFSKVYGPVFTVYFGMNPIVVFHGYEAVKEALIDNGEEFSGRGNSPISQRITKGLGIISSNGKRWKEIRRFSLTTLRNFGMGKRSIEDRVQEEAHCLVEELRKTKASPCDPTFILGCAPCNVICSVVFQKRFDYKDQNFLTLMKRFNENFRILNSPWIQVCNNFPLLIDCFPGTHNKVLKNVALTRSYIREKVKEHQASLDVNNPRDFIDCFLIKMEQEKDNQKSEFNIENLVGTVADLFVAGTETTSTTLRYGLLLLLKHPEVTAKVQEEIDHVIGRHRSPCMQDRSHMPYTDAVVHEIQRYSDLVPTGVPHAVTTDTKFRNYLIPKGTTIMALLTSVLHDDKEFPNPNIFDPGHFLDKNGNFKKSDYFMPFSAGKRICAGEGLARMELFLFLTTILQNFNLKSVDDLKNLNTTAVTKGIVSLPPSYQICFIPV
The data set is described as follows: Inhibition of CYP2C8-catalyzed amodiaquine N-deethylation in pooled human liver microsomes. Also on record: incubation mixtures containing pooled human liver microsomes (HLMs, XTreme 200, XenoTech); tissue XenoTech XTreme 200; host or cells: pooled human liver microsomes. The conditions noted are these: for Ki: amodiaquine 0.1, 0.4, 1 µM, average ± standard error, triplicate; for IC50: substrate amodiaquine 1 µM, read-out: IC50, P450 2C8; for IC50 / inhibition at 10 min, 0.5 µM: pooled HLMs 0.25 mg/mL; for inhibition at 10 min, 0.5 µM: inhibitor 0.5 μM. As for the experimental part: (§1) The inhibitory potential of the five biflavonoids on the metabolism of nine P450 probe substrates was evaluated using previously developed methods with minor modifications. Biflavonoids were dissolved in methanol. The final concentration of methanol in the incubation mixture was 1.0% (v/v). We used these P450 probe substrates: phenacetin for CYP1A2, coumarin for CYP2A6, bupropion for CYP2B6, amodiaquine for CYP2C8, diclofenac for CYP2C9, omeprazole for CYP2C19, dextromethorphan for CYP2D6, chlorzoxazone for CYP2E1 and midazolam for CYP3A (Table 1). The incubation mixtures containing pooled human liver microsomes (HLMs, XTreme 200, XenoTech), P450 probe substrates, and inhibitor (0~20 µM) were pre-incubated at 37 °C for 5 min. The concentration range of the inhibitor varied (0, 0.002, 0.005, 0.02, 0.05, and 0.2 µM for CYP2C8; 0, 0.02, 0.05, 0.2, 0.5, and 2 µM for CYP2C9; 0, 0.5, 2, 5, 10, and 20 µM for other P450 isoforms). After pre-incubation, a reduced nicotinamide adenine dinucleotide phosphate (NADPH) generation system containing 1 unit/ml G6PDH, 1.3 mM β- nicotinamide adenine dinucleotide phosphate (β- NADP^+), 3.3 mM MgCl2, and 3.3 mM G6P was added to initiate a reaction, and further incubated for 10 min at 37 °C. The reaction was stopped by adding 50 μL of ice-cold acetonitrile containing 7 nM trimipramine (internal standard, IS). After centrifugation at 18,000 g (5 min, 4 °C), aliquots of supernatants were analyzed by LC–MS/MS (Shimadzu LCMS 8060 system, Shimadzu, Kyoto, Japan). All microsomal incubations were conducted in triplicate.
The other conditions were the same as in the cytochrome P450 inhibition study.
We used HLMs to determine the mechanisms and constants (Ki values) for selamariscina A inhibition of CYP1A2, CYP2B6, CYP2C8, CYP2C9 and CYP3A. The selamariscina A (0~50 μM) was added into the reaction mixtures, each of which contained concentrations of phenacetin (20, 50, and 100 μM), bupropion (20, 50, and 100 μM), amodiaquine (0.1, 0.4, and 1 μM), rosiglitazone (2, 5, and 10 μM), diclofenac (1, 4, and 10 μM), tolbutamide (50, 100, and 200 μM), and midazolam (0.5, 2, and 5 μM). The substrates were used at concentrations approximately near to their respective Km values. The concentration range of selamariscina A varied (0, 0.002, 0.005, 0.02, 0.05, and 0.2 μM for CYP2C8; 0, […], 0.02, 0.05, 0.2, and 0.5 μM for CYP2C9; 0, 0.2, 0.5, 2, 5, and 20 µM for CYP3A; 0, 0.5, 2, 5, 20, and 50 μM for CYP1A2 and CYP2B6). The other conditions were the same as in the cytochrome P450 inhibition study.
(§2) All metabolites and the IS were separated on a Kinetex XB-C18 column (100 × 2.10 mm, 2.6 μm, 100 Å; Phenomenex, Torrance, CA, USA) and analyzed using a Shimadzu LCMS 8060 triple-quadrupole mass spectrometer coupled with a Nexera X2 ultra high-performance liquid chromatography system (Shimadzu, Kyoto, Japan) equipped with an electrospray ionization interface. The mobile phase consisted of 0.1% formic acid in water (A) and 0.1% formic acid in acetonitrile (B). The elution condition was set as 8% B (0–0.5 min), 8%→60% B (0.5–5 min), 60% B (5–6 min), 60%→8% B (6–6.1 min) and 8% B (6.1–9 min) for the analysis of metabolites of P450 probe substrates and set as 0%→40% B (0–1 min), 40%→50% B (1–5 min), 50%→0% B (5–5.1 min), and 0% B (5.1–8 min) for the analysis of metabolites of UGT probe substrates. The flow rate was 0.2 mL/min. Electrospray ionization was performed in positive-ion mode at 4000 V or in negative-ion mode at −3500 V. The optimum operating conditions were determined as follows: vaporizer temperature, 300 °C; capillary temperature, 350 °C; collision gas (argon) pressure, 1.5 mTorr. Quantitation was conducted in selected reaction monitoring (SRM) modes with the precursor-to-product ion transition for each metabolite (Table 1 and Table 2).
We analyzed the data with Shimadzu LabSolution LC–MS software. The IC50 values were calculated by WinNonlin software (Pharsight, Mountain View, CA, USA).
(Liver microsomes are vesicles of endoplasmic reticulum, rich in cytochrome P450 enzymes.)

The target of another data set is T2, CYP2E1 (Homo sapiens, UniProt P05181).
T2 construct: incubation mixtures containing pooled human liver microsomes (HLMs, XTreme 200, XenoTech); tissue XenoTech XTreme 200; host or cells: pooled human liver microsomes
The data set is described as follows: Inhibition of CYP2E1 (chlorzoxazone) activity in pooled human liver microsomes. The conditions noted are these: substrate chlorzoxazone 50 µM; pooled HLMs; read-out: IC50, P450 2E1. As for the experimental part:
as §1, §2
(§3) We analyzed the data with Shimadzu LabSolution LC–MS software. The IC50 values were calculated by WinNonlin software (Pharsight, Mountain View, CA, USA). The type of inhibition and the apparent kinetic parameters for inhibitory activity (Ki) were determined by following several criteria: visual inspection of Dixon plots, Lineweaver–Burk double reciprocal plots, and secondary plots of Lineweaver–Burk plots versus biflavonoid concentrations, the size of the sum of squares of the residuals, Akaike Information Criteria values, the S.E. and 95% confidence interval of the parameter estimates from the nonlinear regression analysis using the WinNonlin software. The models tested included competitive, competitive partial, noncompetitive, noncompetitive partial, uncompetitive, uncompetitive partial, and mixed-type inhibition.

In a further data set the target is T3, CYP2D6 (Homo sapiens, UniProt P10635).
T3 construct: incubation mixtures containing pooled human liver microsomes (HLMs, XTreme 200, XenoTech); tissue XenoTech XTreme 200; host or cells: pooled human liver microsomes
The data set is described as follows: Inhibition of CYP2D6 (dextromethorphan) activity in pooled human liver microsomes. The conditions noted are these: substrate dextromethorphan 5 µM; pooled HLMs; read-out: IC50, P450 2D6. As to the method:
as §1, §2, §3

Where [1] appears, read: human, pooled human liver microsomes, probe amodiaquine.

T3 sequence (P10635 whole entry): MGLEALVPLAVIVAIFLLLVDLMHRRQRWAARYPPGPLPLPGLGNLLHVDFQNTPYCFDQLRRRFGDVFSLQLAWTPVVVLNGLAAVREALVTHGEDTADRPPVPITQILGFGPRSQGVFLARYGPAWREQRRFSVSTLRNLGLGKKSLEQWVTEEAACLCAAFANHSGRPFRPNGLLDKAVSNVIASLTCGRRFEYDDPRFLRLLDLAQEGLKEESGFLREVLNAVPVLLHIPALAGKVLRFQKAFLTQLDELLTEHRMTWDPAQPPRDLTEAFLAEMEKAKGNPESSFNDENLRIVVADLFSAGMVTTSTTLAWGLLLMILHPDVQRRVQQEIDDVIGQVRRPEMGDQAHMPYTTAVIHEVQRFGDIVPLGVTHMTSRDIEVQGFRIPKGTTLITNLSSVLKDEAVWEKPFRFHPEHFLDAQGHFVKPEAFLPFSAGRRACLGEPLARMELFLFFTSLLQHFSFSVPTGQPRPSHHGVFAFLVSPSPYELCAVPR
T2 sequence (P05181 whole entry): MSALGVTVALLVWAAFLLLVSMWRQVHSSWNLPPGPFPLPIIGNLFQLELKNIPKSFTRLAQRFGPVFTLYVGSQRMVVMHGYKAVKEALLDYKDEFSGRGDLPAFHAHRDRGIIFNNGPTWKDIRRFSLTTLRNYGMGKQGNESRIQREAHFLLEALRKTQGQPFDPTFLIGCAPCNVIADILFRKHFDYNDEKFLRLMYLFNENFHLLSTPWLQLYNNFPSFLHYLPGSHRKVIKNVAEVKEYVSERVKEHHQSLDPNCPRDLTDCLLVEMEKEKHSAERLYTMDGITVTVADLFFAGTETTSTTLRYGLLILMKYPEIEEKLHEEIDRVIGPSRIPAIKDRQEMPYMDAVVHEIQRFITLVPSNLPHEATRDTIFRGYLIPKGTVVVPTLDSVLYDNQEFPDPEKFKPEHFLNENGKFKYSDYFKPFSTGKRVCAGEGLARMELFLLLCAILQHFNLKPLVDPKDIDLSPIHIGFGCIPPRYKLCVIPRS

As a reminder, the Ki is the equilibrium dissociation constant of an inhibitor or competing ligand from its target. By IC50 is commonly meant the concentration that inhibits the measured activity by half. For `O=c1cc(-c2ccc(O)c(-c3c(O)cc(O)c4c(=O)cc(-c5ccc(O)cc5)oc34)c2)oc2cc(O)cc(O)c12` [amentoflavone], the “Mode of Inhibition, CYP2C8 amodiaquine” value at CYP2C8 (HLMs) is “Noncompetitive”. Moreover, the Ki at CYP2C8 (HLMs) was 83 ± 9 nM. For the same compound, the IC50 at CYP2C8 was 84 nM; at CYP2E1 it was 3300 nM; on CYP2D6, 2600 nM.

`O=c1cc(-c2ccc(O)cc2)oc2c(-c3c(O)cc(O)c4c(=O)cc(-c5ccc(O)cc5)oc34)c(O)cc(O)c12` [cupressuflavone]: the “Mode of Inhibition, CYP2C8 amodiaquine” value at CYP2C8 (HLMs) is “Noncompetitive”. Also, the Ki on CYP2C8 (HLMs) was 103 ± 17 nM. Further, the IC50 at CYP2C8 worked out at 83 nM; on CYP2E1, 2300 nM; on CYP2D6, 2700 nM.

As usually defined, the inhibition is the share of the control response that was lost under treatment. With `CC(C)(O)c1ccccc1CC[C@@H](SCC1(CC(=O)O)CC1)c1cccc(/C=C/c2ccc3ccc(Cl)cc3n2)c1` [montelukast, reference compound], the “Times weaker CYP2C8 inhibition than selamariscina A” value on CYP2C8 (IC50 comparison at 0.25 mg/mL microsomal protein) is “more than 25 times”. The inhibition at 10 min, 0.5 µM at CYP2C8 (setting [1]) turned out to be 52.7%. The inhibition at 10 min, 5 µM at CYP2C8 (human, pooled human liver microsomes, probe amodiaquine, inhibitor 5 μM, HLMs) worked out at 86.1%. The half-maximal inhibitory concentration (IC50) at CYP2E1 and on CYP2D6 was greater than 50000 nM in each case.

Regarding `O=c1cc(-c2ccc(O)c(-c3c(O)cc4oc(-c5ccc(O)cc5)cc(=O)c4c3O)c2)oc2cc(O)cc(O)c12` [robustaflavone], on CYP2C8 (HLMs), the “Mode of Inhibition, CYP2C8 amodiaquine” value is recorded as “Noncompetitive”. The Ki at CYP2C8 (HLMs) is 84 ± 16 nM. Also, the IC50 amounted to 83 nM on CYP2C8, 2900 nM at CYP2E1 and 2200 nM on CYP2D6.

With `O=C1CC(c2cc(-c3c(O)ccc4c(=O)cc(-c5ccc(O)cc5)oc34)c(O)cc2O)Oc2cc(O)cc(O)c21` (centres unmarked) [selamariscina A], the “Times stronger CYP2C8 inhibitory potential than amentoflavone” value on CYP2C8 is “more than 4.5 times”. In addition, the “Mode of Inhibition, CYP2C8 amodiaquine” value on CYP2C8 (HLMs) is recorded as “Noncompetitive”. The inhibition constant (Ki) on CYP2C8 (HLMs) turned out to be 18 ± 2 nM. Also, on CYP2C8 (setting [1]), the inhibition at 10 min, 0.5 µM amounted to 92.8%. Further, the IC50 at CYP2C8 was 19 nM; at CYP2E1, greater than 20000 nM; at CYP2D6, 10600 nM.

With `O=c1cc(-c2ccc(O)c(-c3c(-c4ccc(O)cc4)oc4cc(O)cc(O)c4c3=O)c2)oc2cc(O)cc(O)c12` [taiwaniaflavone], on CYP2C8 (HLMs), the “Mode of Inhibition, CYP2C8 amodiaquine” value is on record as “Noncompetitive”. Moreover, the Ki on CYP2C8 (HLMs) was 142 ± 26 nM. The IC50 was found to be 120 nM at CYP2C8, 6000 nM on CYP2E1 and 3200 nM at CYP2D6.
